This assay has as its system KRAS PDC tumor spheroids (HUVEC+MSC), viability. Briefly: Anticancer human tumor 254851-301-R-J1-PDC patient-derived colon carcinoma cell line growth inhibition [KRAS2]. The conditions noted are these: for viability, T/C: stronger effect = lower value. The text has this:
Multicellular complex tumor spheroid response to RAS pathway inhibitors in combination with a targeted agents in patient-derived cell lines with oncogenic KRAS variants from multiple cancer types
A high-throughput screen of multi-cell type tumor spheroids was designed to identify active combinations of targeted small molecules and KRAS pathway inhibitors. Complex spheroids include a stromal component modeled by human endothelial cells (HUVEC) and fibroblasts modeled by human mesenchymal stem cells (MSCs). The concentration ranges selected for each drug and investigational agent were based upon clinically achievable concentrations if the clinical Cmax of the agent was known.
Compounds. The drugs and investigational agents: BI-3406 (NSC825286), BAY-293 (NSC824723), batoprotafib (TNO155; NSC825523), sotorasib (AMG 510; NSC818433), MRTX1257 (NSC819558), elimusertib (BAY 1895344; NSC800525), molibresib (GSK525762; NSC774829), temuterkib (LY3214996; NSC803410), venetoclax (NSC766270), alisertib (NSC759677), olaparib (NSC753686), talazoparib (NSC767125), erdafitinib (NSC781556), ipatasertib (NSC767898), cabozantinib (NSC761068), nintedanib (NSC756659), abemaciclib (NSC768073), docetaxel (NSC628503), trametinib (NSC758246), and sapanisertib (NSC764658) were obtained from the National Cancer Institute (NCI) Developmental Therapeutics Program Chemical Repository. The FDA-approved anticancer drug set is available from the Developmental Therapeutics Program. […] The stock solutions were prepared in dimethyl sulfoxide (DMSO, Sigma-Aldrich, St. Louis, MO, cat. D2650) at 800-fold the tested concentration and stored at -70 degrees C prior to their use. All drugs and investigational agents were tested over a range starting from a high concentration at or near the clinical Cmax and decreasing in half-log increments. If the clinical Cmax for an agent had not been determined, the highest concentration tested was 10 microM.
Cell Culture. All cells were maintained in an incubator at 37 degrees C and 5% CO2 with 95% humidity. The PDC lines were cultured according to standard operating procedures established by the NCI PDMR (https://pdmr.cancer.gov/sops/default.htm). Briefly, all PDCs were thawed and cultured in Matrigel-coated flasks prepared with a working solution of 1X Ham's F-12 nutrient mix, without supplementation (Invitrogen, Waltham, MA, cat. 11765054), 100 U/mL penicillin-streptomycin (Invitrogen, cat. 15140122), and 2.5% Matrigel (Corning Inc., Corning, NY, cat. 354248) for the first three passages. All PDCs were cultured in complete DMEM/F-12 media containing advanced DMEM/F-12 (Invitrogen, cat. 12634028), 4.9% defined fetal bovine serum, heat inactivated (HyClone Laboratories Inc., Logan, UT, cat. SH30070.03HI), 389 ng/mL hydrocortisone (Sigma-Aldrich, cat. H4001), 9.7 ng/mL human EGF recombinant protein (Invitrogen, cat. PHG0313), 23.4 microg/mL adenine (Sigma-Aldrich, cat. A2786), 97.3 U/mL penicillin-streptomycin (Invitrogen, cat. 15140122), 1.9 mM L-glutamine (Invitrogen, cat. 25030081), and 9.7 microM Y-27632 dihydrochloride (Tocris Bioscience, Bristol, United Kingdom, cat. 1254). The PDCs were cultured in complete DMEM/F12 media without 9.7 microM Y-27632 dihydrochloride for at least two passages prior to the screen. The established cell line HOP-62 was cultured in RPMI 1640 medium, HEPES (Invitrogen, cat. 22400105) with 10% defined fetal bovine serum (HyClone Laboratories Inc., cat. SH30070.03) and 2 mM L-glutamine (Invitrogen, cat. 25030081). The pooled donor HUVEC were cultured in endothelial cell growth medium 2 (PromoCell, Heidelberg, Germany, cat. C-22011) and the hMSC were cultured in mesenchymal stem cell growth medium 2 (PromoCell, cat. C-28009). For all experiments, HUVEC and hMSC were used at passages </=5, while the malignant cell lines were used at passages </=15. […]

[1] abbreviates: curve of first compound, second compound 0.1 µM.
Setting [2] is: curve of first compound, second compound 0.316 µM.
Setting [3] is: curve of first compound, second compound 1 µM.
Where [4] appears, read: curve of first compound, second compound 3.16 µM.
[5] abbreviates: curve of first compound, second compound 10 µM.
Where [6] appears, read: second compound 0.1 µM, first compound 0.0316 µM.
The mark [7] stands for this setting: second compound 0.1 µM, first compound 0.1 µM.
The mark [8] stands for this setting: second compound 0.1 µM, first compound 0.316 µM.
Where [9] appears, read: second compound 0.1 µM, first compound 1 µM.
The mark [10] stands for this setting: second compound 0.1 µM, first compound 3.16 µM.
The mark [11] stands for this setting: second compound 0.1 µM, first compound 10 µM.
[12] abbreviates: second compound 0.316 µM, first compound 0.0316 µM.
The mark [13] stands for this setting: second compound 0.316 µM, first compound 0.1 µM.
[14] abbreviates: second compound 0.316 µM, first compound 0.316 µM.
[15] abbreviates: second compound 0.316 µM, first compound 1 µM.
[16] abbreviates: second compound 0.316 µM, first compound 3.16 µM.
The mark [17] stands for this setting: second compound 0.316 µM, first compound 10 µM.
Where [18] appears, read: second compound 1 µM, first compound 0.0316 µM.
Setting [19] is: second compound 1 µM, first compound 0.1 µM.
Setting [20] is: second compound 1 µM, first compound 0.316 µM.
Where [21] appears, read: second compound 1 µM, first compound 1 µM.
The mark [22] stands for this setting: second compound 1 µM, first compound 3.16 µM.
Setting [23] is: second compound 1 µM, first compound 10 µM.
Setting [24] is: second compound 3.16 µM, first compound 0.0316 µM.
The mark [25] stands for this setting: second compound 3.16 µM, first compound 0.1 µM.
Where [26] appears, read: second compound 3.16 µM, first compound 0.316 µM.
Where [27] appears, read: second compound 3.16 µM, first compound 1 µM.
[28] abbreviates: second compound 3.16 µM, first compound 3.16 µM.
[29] abbreviates: second compound 3.16 µM, first compound 10 µM.
Setting [30] is: second compound 10 µM, first compound 0.0316 µM.
[31] abbreviates: second compound 10 µM, first compound 0.1 µM.
Setting [32] is: second compound 10 µM, first compound 0.316 µM.
[33] abbreviates: second compound 10 µM, first compound 1 µM.
[34] abbreviates: second compound 10 µM, first compound 3.16 µM.
The mark [35] stands for this setting: second compound 10 µM, first compound 10 µM.

From PubChem BioAssay AID1963868 (Molecular Pharmacology Branch, DTP, NCI, 2024) come the findings set out here.

As usually defined, the IC50 is the concentration at which inhibition is half-maximal. Usually viability, T/C stands for the ratio of treated to control.
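Note: spheroids exposed to compounds for seven days before readout.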
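Throughout, for viability, T/C: 100% = DMSO vehicle control luminescence of the spheroids.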

For `COC(=O)c1ccc2c(C(=Nc3ccc(N(C)C(=O)CN4CCN(C)CC4)cc3)c3ccccc3)c(O)[nH]c2c1` + CC1OCC2(CCN(c3cnc(Sc4ccnc(N)c4Cl)c(N)n3)CC2)C1N, the IC50 is more than 10 µM under setting [1]; more than 10 µM under setting [2]; more than 10 µM under setting [3]; more than 10 µM under setting [4]; 2.37 µM under setting [5]. Further, the viability, T/C is 95.4% under setting [6]; 100% under setting [7]; 96% under setting [8]; 95% under setting [9]; 90.4% under setting [10]; 88.6% under setting [11]. Further, the viability, T/C under setting [12] is 88.3%; the viability, T/C under setting [13] was 84.5%; the viability, T/C under setting [14] was 79.5%; the viability, T/C under setting [15] is 81.8%; the viability, T/C under setting [16] was 82%; the viability, T/C under setting [17] is 78.5%. For the same compound, the viability, T/C is, setting by setting: under setting [18], 75.6%; under setting [19], 76.1%; under setting [20], 75.6%; under setting [21], 68.1%; under setting [22], 69.2%; under setting [23], 81.6%. Moreover, the viability, T/C is 64.9% under setting [24]; 67.5% under setting [25]; 66% under setting [26]; 65.1% under setting [27]; 55.1% under setting [28]; 63% under setting [29]. The viability, T/C was 63.5% under setting [30]; 70% under setting [31]; 57.9% under setting [32]; 60.7% under setting [33]; 41.4% under setting [34]; 41.6% under setting [35].
For `C=CC(=O)N1CCN(c2nc(=O)n(-c3c(C)ccnc3C(C)C)c3nc(-c4c(O)cccc4F)c(F)cc23)C(C)C1` (stereo not drawn), the viability, T/C (compound 0.1 µM) is 100% [middle of 17 runs]. Further, the IC50 was more than 10 µM (compound alone, run of 07/12/2021); more than 10 µM (compound alone, run of 07/19/2021); more than 10 µM (compound alone, run of 07/26/2021).
For the compound `Cn1nccc1Nc1nccc(-c2cc3c(s2)C(C)(C)N(CCN2CCOCC2)C3=O)n1`, the viability, T/C reads like this: (compound 0.0316 µM) 92.9% [middle of 5 runs]; (compound 0.1 µM) 98.1% [middle of 5 runs]; (compound 0.316 µM) 102% [middle of 5 runs]; (compound 1 µM) 89.6% [middle of 5 runs]; (compound 3.16 µM) 51.9% [middle of 5 runs]; (compound 10 µM) 4.24% [middle of 5 runs]. The half-maximal inhibitory concentration (IC50) (curve of compound) is 3.28 µM [middle of 5 runs].
For the compound `COC(=O)c1ccc2c(C(=Nc3ccc(N(C)C(=O)CN4CCN(C)CC4)cc3)c3ccccc3)c(O)[nH]c2c1`, the viability, T/C is 104% [middle of 5 runs] (compound 0.0316 µM); 99.1% [middle of 5 runs] (compound 0.1 µM); 95.2% [middle of 5 runs] (compound 0.316 µM); 97.2% [middle of 5 runs] (compound 1 µM); 86.5% [middle of 5 runs] (compound 3.16 µM); 95.5% [middle of 5 runs] (compound 10 µM). For the same compound, the IC50 (curve of compound) is more than 10 µM.
As to `CC1(C)CCC(CN2CCN(c3ccc(C(=O)NS(=O)(=O)c4ccc(NCC5CCOCC5)c([N+](=O)[O-])c4)c(Oc4cnc5[nH]ccc5c4)c3)CC2)=C(c2ccc(Cl)cc2)C1` + CNCc1ccccc1-c1csc(C(C)Nc2nc(C)nc3cc(OC)c(OC)cc23)c1, the half-inhibitory concentration (IC50) is, setting by setting: under setting [1], more than 10 µM; under setting [2], more than 10 µM; under setting [3], 3.12 µM; under setting [4], 1.11 µM; under setting [5], less than 0.0316 µM. The viability, T/C reads like this: under setting [6], 100%; under setting [7], 104%; under setting [8], 100%; under setting [9], 94.8%; under setting [10], 94%; under setting [11], 86%. Moreover, the viability, T/C runs as follows: under setting [12], 91.9%; under setting [13], 102%; under setting [14], 99.7%; under setting [15], 100%; under setting [16], 87.7%; under setting [17], 81.2%. Besides, the viability, T/C under setting [18] is 93.3%; the viability, T/C under setting [19] is 102%; the viability, T/C under setting [20] was 92.9%; the viability, T/C under setting [21] is 83.2%; the viability, T/C under setting [22] is 49.6%; the viability, T/C under setting [23] was 16.4%. For the same compound, the viability, T/C is, setting by setting: under setting [24], 80.4%; under setting [25], 75.1%; under setting [26], 71.6%; under setting [27], 55%; under setting [28], 1.17%; under setting [29], 0.61%. The viability, T/C is, setting by setting: under setting [30], 0.17%; under setting [31], 0.2%; under setting [32], 0.17%; under setting [33], 0.15%; under setting [34], 0.12%; under setting [35], 0.17%.
